Experimental data as given in US6083964A, “Optical resolution of racemic aminoalkylpyridine anticonvulsants and (+) aminoalkylpyridine enantiomers as highly potent orally effective anticonvulsant drugs and excitatory amino acid antagonists” (K and K Biosciences, Inc., priority 1999, dated 2000).
Where two headings read alike, the source gives them in different places.

Assays:
[1] = test system: maximal electroshock seizure (MES) in mice; assay: Maximal electroshock seizure (MES) test, mice, i.p.; format: in vivo, mouse (male Carworth Farms #1); conditions: for ED50: MES test; for P.I. (protective index, TD50/ED50) / % protection: MES; for % protection: 100 mg/kg
Excerpt: The (+) AAP enantiomers obtained by optical resolution of racemic AAPs and the resulting highly orally effective anticonvulsant compositions of this invention are useful in the treatment of convulsive disorders. […] A series of (+) AAP enantiomers and (-) AAP enantiomers of this invention has been evaluated for anticonvulsant activity by the intraperitoneal (i.p.) and by the oral (p.o.) route using two standard seizure models in the mouse and in the rat, the maximal electroshock seizure (MES) test and the subcutaneous pentylenetetrazol (Metrazole) seizure threshold (scMet) test. […] The following Table 2 presents the results of these anticonvulsant tests with respect to several (+) and (-) AAP enantiomeric compounds derived from optical resolution of racemic AAPs of the present invention. This Table 2 identifies the specific compounds tested by their chemical name and provides the test model, the route of administration, the animal species used, and the anticonvulsant activity and toxicity in terms of ED50 and TD50 values, (the median effective and toxic dose respectively), when intraperitoneally administered to mice, and when orally administered to rats. In mice, i.p.: All compounds are emulsified in 0.5% methylcellulose. The solvent has been tested for anticonvulsant and toxic effects and found to introduce no significant bias into the testing of anticonvulsant activity. The compounds are administered intraperitoneally in a volume of 0.01 ml/gm to male Carworth Farms #1 mice weighing about 20 gm. All compounds are tested at least at three dose levels (30, 100 and 300 mg/kg) at 30 minutes and 4 hours after their administration. The Maximal Electroshock Seizure Test (MES): Maximal electroshock seizures are elicited with a 60 Hz alternating current of 50 mA intensity in mice and about 150 mA intensity in rats (5-7 times that necessary to elicit minimal electroshock seizures), delivered for 0.2 sec via corneal electrodes. A drop of 0.9% saline is instilled in the eye prior to application of the electrodes in order to […]. Abolition of the hind limb tonic extension component of the seizure is defined as protection and results are expressed as number of animals protected/number of animals tested. The Subcutaneous Pentylenetetrazol (Metrazole) Seizure Threshold Test (scMet): A 0.5% solution of 85 mg/kg of pentylenetetrazol is administered subcutaneously in the posterior midline 30 minutes or 4 hours after drug administration to the animal. […] Anticonvulsant Quantification in Mice i.p.: The ED50 values are determined in the MES, scMet and rotorod ataxia test. To determine the ED50 values, five logarithmically spaced doses of the test compound are administered to animals (male Carworth Farms #1 mice) in groups of eight, to cover 0-100% protection, and the dose required to protect 50% of the animals (ED50) together with its 95% confidence limits, is determined graphically.

[2] = test system: maximal electroshock seizure (MES) in rats; assay: Maximal electroshock seizure (MES) test, rats, p.o.; format: in vivo, rat (Sprague-Dawley); conditions: for % protection (lowest and highest) during 4 hour period: 4 rats per point; for ED50: Rattus norvegicus, po, MES test, read-out: ED50
Excerpt: The (+) AAP enantiomers obtained by optical resolution of racemic AAPs and the resulting highly orally effective anticonvulsant compositions of this invention are useful in the treatment of convulsive disorders. […] A series of (+) AAP enantiomers and (-) AAP enantiomers of this invention has been evaluated for anticonvulsant activity by the intraperitoneal (i.p.) and by the oral (p.o.) route using two standard seizure models in the mouse and in the rat, the maximal electroshock seizure (MES) test and the subcutaneous pentylenetetrazol (Metrazole) seizure threshold (scMet) test. […] The following Table 2 presents the results of these anticonvulsant tests with respect to several (+) and (-) AAP enantiomeric compounds derived from optical resolution of racemic AAPs of the present invention. This Table 2 identifies the specific compounds tested by their chemical name and provides the test model, the route of administration, the animal species used, and the anticonvulsant activity and toxicity in terms of ED50 and TD50 values, (the median effective and toxic dose respectively), when intraperitoneally administered to mice, and when orally administered to rats. The Maximal Electroshock Seizure Test (MES): Maximal electroshock seizures are elicited with a 60 Hz alternating current of 50 mA intensity in mice and about 150 mA intensity in rats (5-7 times that necessary to elicit minimal electroshock seizures), delivered for 0.2 sec via corneal electrodes. A drop of 0.9% saline is instilled in the eye prior to application of the electrodes in order to […]. Abolition of the hind limb tonic extension component of the seizure is defined as protection and results are expressed as number of animals protected/number of animals tested. The Subcutaneous Pentylenetetrazol (Metrazole) Seizure Threshold Test (scMet): A 0.5% solution of 85 mg/kg of pentylenetetrazol is administered subcutaneously in the posterior midline 30 minutes or 4 hours after drug administration to the animal. […] This species will be the subject of the complete anticonvulsant quantification test evaluation as described above, but after oral (gavage) administration of the candidate compound.

[3] = test system: neurotoxicity (rotorod ataxia) in mice; assay: Neurotoxicity, rotorod ataxia test, mice, i.p.; design: species or system mouse (male Carworth Farms #1); conditions: mouse, in vivo, ip
Protocol: Neurotoxicity is determined by the rotorod ataxia test in mice and by the positional sense test and gait and stance test in the rat. The following Table 2 presents the results of these anticonvulsant tests with respect to several (+) and (-) AAP enantiomeric compounds derived from optical resolution of racemic AAPs of the present invention. This Table 2 identifies the specific compounds tested by their chemical name and provides the test model, the route of administration, the animal species used, and the anticonvulsant activity and toxicity in terms of ED50 and TD50 values, (the median effective and toxic dose respectively), when intraperitoneally administered to mice, and when orally administered to rats. In mice, i.p.: All compounds are emulsified in 0.5% methylcellulose. The solvent has been tested for anticonvulsant and toxic effects and found to introduce no significant bias into the testing of anticonvulsant activity. The compounds are administered intraperitoneally in a volume of 0.01 ml/gm to male Carworth Farms #1 mice weighing about 20 gm. All compounds are tested at least at three dose levels (30, 100 and 300 mg/kg) at 30 minutes and 4 hours after their administration. Neurotoxicity is evaluated in mice by the rotorod ataxia test. The animal is placed on a wooden rod of 1 and 1/8 diameter rotating at 6 rpm. Normal mice can remain on a rod rotating at this speed indefinitely. […] Anticonvulsant Quantification in Mice i.p.: The ED50 values are determined in the MES, scMet and rotorod ataxia test. To determine the ED50 values, five logarithmically spaced doses of the test compound are administered to animals (male Carworth Farms #1 mice) in groups of eight, to cover 0-100% protection, and the dose required to protect 50% of the animals (ED50) together with its 95% confidence limits, is determined graphically.

[4] = Neurological deficit, positional sense test and gait and stance test, rats, p.o.; design: species or system rat (Sprague-Dawley); conditions: rat, in vivo, po
Protocol: Neurotoxicity is determined by the rotorod ataxia test in mice and by the positional sense test and gait and stance test in the rat. The following Table 2 presents the results of these anticonvulsant tests with respect to several (+) and (-) AAP enantiomeric compounds derived from optical resolution of racemic AAPs of the present invention. This Table 2 identifies the specific compounds tested by their chemical name and provides the test model, the route of administration, the animal species used, and the anticonvulsant activity and toxicity in terms of ED50 and TD50 values, (the median effective and toxic dose respectively), when intraperitoneally administered to mice, and when orally administered to rats. […] This species will be the subject of the complete anticonvulsant quantification test evaluation as described above, but after oral (gavage) administration of the candidate compound. […] Neurological deficit in rats is examined by the positional sense test and gait and stance test. […] Inability to do so rapidly indicates a neurologic deficit. In the gait and stance test, a neurologic deficit is indicated by a circular or a zigzag gait, ataxia, abnormal spread of the legs, abnormal body posture, tremor, hyperactivity, lack of exploratory behavior, somnolence, stupor, or catalepsy.

[5] = rat, p.o. for racemic AAPs, MES

For `CCC(Nc1ccc(Cl)cc1)c1ccncc1` (single isomer, unassigned; (-)) [Compound 8, (-) N-(4-Chlorophenyl)-1-(4-pyridyl)propylamine], the ED50 ([1]; listed as (4) (-) Enantiomer) was 118.9 mg/kg, the “P.I. (protective index, TD50/ED50)” value ([1]; listed as (4) (-) Enantiomer) was 2.3 and the “% protection (lowest and highest) during 4 hour period” value ([2]; rat, p.o., 30 mg/kg, 5 time points 0.25-4 hours, MES, listed as (4) (-) Enantiomer) was 25-100%. For the same compound, the TD50 [3] was 269.4 mg/kg.

In the case of `CCC(Nc1ccc(Cl)cc1)c1ccncc1` (racemic) [N-(4-Chlorophenyl)-1-(4-pyridyl)propylamine, reference compound], the TD50 [4] is reported as > 500 mg/kg, the ED50 ([2]; p.o. for racemic AAPs) is reported as 25 mg/kg and the “P.I. (protective index, TD50/ED50)” value [2, 5] is reported as > 20.

For `CC(Nc1cccc(Cl)c1)c1ccncc1` (single isomer, unassigned; (+)) [Compound 3, (+) N-(3-Chlorophenyl)-1-(4-pyridyl)ethylamine], the “% protection” value ([1]; listed as (2) (+) Enantiomer) was 67% and the “% protection (lowest and highest) during 4 hour period” value ([2]; rat, p.o., 30 mg/kg, 5 time points 0.25-4 hours, MES, listed as (2) (+) Enantiomer, 30 mg/kg) was 25-75%.

In the case of `CCC(Nc1ccc(Cl)c(Cl)c1)c1ccncc1` (racemic) [N-(3,4-Dichlorophenyl)-1-(4-pyridyl)propylamine, reference compound], the “% protection (lowest and highest) during a 4-hour period” value ([2]; rat, p.o. for racemic AAPs, 30 mg/kg, 5 time points 0.25-4 hours, MES) is reported as 0-50%.

With `CC(Nc1ccc(Cl)c(Cl)c1)c1ccncc1` (single isomer, unassigned; (-)) [Compound 6, (-) N-(3,4-Dichlorophenyl)-1-(4-pyridyl)ethylamine] the ED50 ([1]; listed as (3) (-) Enantiomer) was 125.4 mg/kg, the “P.I. (protective index, TD50/ED50)” value ([1]; listed as (3) (-) Enantiomer) was 2.2 and the “% protection (lowest and highest) during 4 hour period” value ([2]; rat, p.o., 30 mg/kg, 5 time points 0.25-4 hours, MES, listed as (3) (-) Enantiomer) was 25-75%. The TD50 [3] was 279.2 mg/kg.

In the case of `CC(Nc1cccc(Cl)c1)c1ccncc1` (racemic) [N-(3-Chlorophenyl)-1-(4-pyridyl)ethylamine, reference compound], the TD50 [4] is reported as > 500 mg/kg, the ED50 ([2]; p.o. for racemic AAPs) is reported as 34 mg/kg and the “P.I. (protective index, TD50/ED50)” value [2, 5] is reported as > 14.7.

With `CC(Nc1ccc(Br)cc1)c1ccncc1` (racemic) [N-(4-Bromophenyl)-1-(4-pyridyl)ethylamine, reference compound] the TD50 [4] was > 500 mg/kg, the ED50 ([2]; p.o. for racemic AAPs) was 20.9 mg/kg and the “P.I. (protective index, TD50/ED50)” value [2, 5] was > 23.9.

For `CCC(Nc1ccc(Cl)c(Cl)c1)c1ccncc1` (single isomer, unassigned; (-)) [Compound 10, (-) N-(3,4-Dichlorophenyl)-1-(4-pyridyl)propylamine], the ED50 ([1]; listed as (5) (-) Enantiomer) was 117.3 mg/kg, the “P.I. (protective index, TD50/ED50)” value ([1]; listed as (5) (-) Enantiomer) was 2.3 and the “% protection (lowest and highest) during 4 hour period” value ([2]; rat, p.o., 30 mg/kg, 5 time points 0.25-4 hours, MES, listed as (5) (-) Enantiomer) was 25-100%. It also gave a TD50 [3] of 275.2 mg/kg.

With `CC(Nc1ccc(Cl)cc1)c1ccncc1` (racemic) [N-(4-Chlorophenyl)-1-(4-pyridyl)ethylamine, reference compound] the TD50 [4] was > 470 mg/kg, the ED50 ([2]; p.o. for racemic AAPs) was 22.9 mg/kg and the “P.I. (protective index, TD50/ED50)” value [2, 5] was > 20.5.

For `CC(Nc1ccc(Br)cc1)c1ccncc1` (single isomer, unassigned; (-)) [Compound 12, (-) N-(4-Bromophenyl)-1-(4-pyridyl)ethylamine], the ED50 ([1]; listed as (6) (-) Enantiomer) was 85.5 mg/kg, the “P.I. (protective index, TD50/ED50)” value ([1]; listed as (6) (-) Enantiomer) was 3.4 and the “% protection (lowest and highest) during 4 hour period” value ([2]; rat, p.o., 30 mg/kg, 5 time points 0.25-4 hours, MES) was 25-75%. It also gave a TD50 [3] of 287.6 mg/kg.

With `CC(Nc1cccc(Cl)c1)c1ccncc1` (single isomer, unassigned; (-)) [Compound 4, (-) N-(3-Chlorophenyl)-1-(4-pyridyl)ethylamine] the TD50 [4] was > 62.5 mg/kg, the “% protection” value ([1]; listed as (2) (-) Enantiomer) was 33% and the ED50 ([2]; p.o.) was 29.6 mg/kg. For the same compound, the “% protection (lowest and highest) during 4 hour period” value ([2]; rat, p.o., 30 mg/kg, 5 time points 0.25-4 hours, MES, listed as (2) (-) Enantiomer) was 50-100% and the “P.I. (protective index, TD50/ED50)” value ([2]; rat, p.o., MES) was > 2.1.

For `CC(Nc1ccc(Br)cc1)c1ccncc1` (single isomer, unassigned; (+)) [Compound 11, (+) N-(4-Bromophenyl)-1-(4-pyridyl)ethylamine], the TD50 [4] was > 500 mg/kg, the ED50 ([1]; listed as (6) (+) Enantiomer) was 34.7 mg/kg and the “P.I. (protective index, TD50/ED50)” value ([1]; listed as (6) (+) Enantiomer) was 3.9. For the same compound, the ED50 ([2]; p.o.) was 9.3 mg/kg, the “P.I. (protective index, TD50/ED50)” value ([2]; rat, p.o., MES) was > 53.7 and the TD50 [3] was 133.9 mg/kg.

In the case of `CC(Nc1ccc(Cl)c(Cl)c1)c1ccncc1` (racemic) [N-(3,4-Dichlorophenyl)-1-(4-pyridyl)ethylamine, reference compound], the TD50 [4] is reported as > 500 mg/kg and the “P.I. (protective index, TD50/ED50)” value [2, 5] is reported as > 16.8.
